Patent US11306092B2, “Amino indole compounds useful as TLR inhibitors” (BRISTOL-MYERS SQUIBB COMPANY, priority 2017, dated 2022)

Columns and labels:
Assay type in all cases: cell-based
human TLR8 = target: T1, human TLR8 (Homo sapiens, UniProt Q9NR97); assay: TLR8 inhibition reporter assay (HEK-Blue SEAP reporter); details: HEK-Blue cells overexpressing human TLR8; R848 15.9 μM; 22 hour incubation
T1 construct: host or cells: HEK-Blue cells
T1 sequence (Q9NR97 27-1041): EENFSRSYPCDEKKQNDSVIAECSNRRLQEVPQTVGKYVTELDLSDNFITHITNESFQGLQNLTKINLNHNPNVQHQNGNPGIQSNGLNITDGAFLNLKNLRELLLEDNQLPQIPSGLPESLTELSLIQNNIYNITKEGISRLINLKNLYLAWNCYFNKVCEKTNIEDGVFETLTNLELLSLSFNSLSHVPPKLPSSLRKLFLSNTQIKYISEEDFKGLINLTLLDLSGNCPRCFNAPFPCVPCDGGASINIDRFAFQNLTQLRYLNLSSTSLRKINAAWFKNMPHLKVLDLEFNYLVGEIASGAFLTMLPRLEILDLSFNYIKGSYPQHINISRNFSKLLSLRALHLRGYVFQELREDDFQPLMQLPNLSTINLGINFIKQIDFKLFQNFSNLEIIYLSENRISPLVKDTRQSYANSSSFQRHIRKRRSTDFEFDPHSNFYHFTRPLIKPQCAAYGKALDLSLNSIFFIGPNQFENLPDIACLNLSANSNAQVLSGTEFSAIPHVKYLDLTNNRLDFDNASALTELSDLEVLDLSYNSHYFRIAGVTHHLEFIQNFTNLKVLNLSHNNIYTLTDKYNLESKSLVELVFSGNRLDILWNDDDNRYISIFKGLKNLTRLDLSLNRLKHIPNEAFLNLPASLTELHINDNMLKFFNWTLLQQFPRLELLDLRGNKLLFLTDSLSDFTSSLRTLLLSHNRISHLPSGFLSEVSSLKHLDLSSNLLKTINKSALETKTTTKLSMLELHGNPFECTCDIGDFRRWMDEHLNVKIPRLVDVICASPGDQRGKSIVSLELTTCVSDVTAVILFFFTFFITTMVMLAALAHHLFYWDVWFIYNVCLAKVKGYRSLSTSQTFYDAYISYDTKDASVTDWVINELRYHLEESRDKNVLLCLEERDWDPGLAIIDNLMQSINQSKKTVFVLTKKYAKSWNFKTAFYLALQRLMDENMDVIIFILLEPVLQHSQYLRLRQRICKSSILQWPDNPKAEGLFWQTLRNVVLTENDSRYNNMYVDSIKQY
How it was run: (§1)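 Screening used HEK-Blue cells overexpressing one human TLR (7, 8 or 9) and an IFN-β minimal promoter–NF-κB/AP-1 SEAP construct. Stimulation lasted 22 h at 37 °C with receptor-specific agonist: gardiquimod, R848 or ODN2006 at 7.5 μM, 15.9 μM and 5 nM.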

human TLR9 = target: T2, human TLR9 (Homo sapiens, UniProt Q9NR96); assay: TLR9 inhibition reporter assay (HEK-Blue SEAP reporter); details: HEK-Blue cells overexpressing human TLR9; ODN2006 5 nM; 22 hour incubation
T2 construct: host or cells: HEK-Blue cells
T2 sequence (Q9NR96 26-1032): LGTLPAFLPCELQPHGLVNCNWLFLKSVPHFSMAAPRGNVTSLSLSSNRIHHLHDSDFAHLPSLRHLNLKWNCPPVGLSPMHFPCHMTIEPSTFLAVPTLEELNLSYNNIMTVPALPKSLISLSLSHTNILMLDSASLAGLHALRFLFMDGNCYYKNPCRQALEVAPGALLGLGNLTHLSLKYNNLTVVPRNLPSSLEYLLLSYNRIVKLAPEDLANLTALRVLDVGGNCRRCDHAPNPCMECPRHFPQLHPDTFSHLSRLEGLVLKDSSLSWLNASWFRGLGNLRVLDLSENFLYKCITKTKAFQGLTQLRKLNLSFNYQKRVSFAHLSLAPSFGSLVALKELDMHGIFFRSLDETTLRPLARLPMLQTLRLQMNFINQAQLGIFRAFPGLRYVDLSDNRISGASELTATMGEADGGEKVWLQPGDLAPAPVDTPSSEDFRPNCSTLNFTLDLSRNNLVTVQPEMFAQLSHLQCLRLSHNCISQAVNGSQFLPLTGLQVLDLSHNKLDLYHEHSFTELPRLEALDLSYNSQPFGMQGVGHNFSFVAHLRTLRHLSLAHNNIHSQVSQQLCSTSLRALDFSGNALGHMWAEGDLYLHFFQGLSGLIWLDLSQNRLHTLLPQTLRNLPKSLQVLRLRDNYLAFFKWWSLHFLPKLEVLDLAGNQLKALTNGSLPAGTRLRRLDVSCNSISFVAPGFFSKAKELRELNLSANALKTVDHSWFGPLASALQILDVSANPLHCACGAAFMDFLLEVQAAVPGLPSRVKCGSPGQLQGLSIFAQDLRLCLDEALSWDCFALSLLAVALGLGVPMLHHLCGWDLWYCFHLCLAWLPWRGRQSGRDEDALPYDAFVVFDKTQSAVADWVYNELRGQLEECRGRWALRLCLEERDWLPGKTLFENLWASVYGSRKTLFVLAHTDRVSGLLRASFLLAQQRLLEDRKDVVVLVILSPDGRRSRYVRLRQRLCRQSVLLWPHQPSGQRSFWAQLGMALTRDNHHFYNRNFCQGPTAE
How it was run: as §1

human TLR7 = target: T3, human TLR7 (Homo sapiens, UniProt Q9NYK1); assay: TLR7 inhibition reporter assay (HEK-Blue SEAP reporter); details: HEK-Blue cells overexpressing human TLR7; gardiquimod 7.5 μM; 22 hour incubation
T3 construct: host or cells: HEK-Blue cells
T3 sequence (Q9NYK1 27-1049): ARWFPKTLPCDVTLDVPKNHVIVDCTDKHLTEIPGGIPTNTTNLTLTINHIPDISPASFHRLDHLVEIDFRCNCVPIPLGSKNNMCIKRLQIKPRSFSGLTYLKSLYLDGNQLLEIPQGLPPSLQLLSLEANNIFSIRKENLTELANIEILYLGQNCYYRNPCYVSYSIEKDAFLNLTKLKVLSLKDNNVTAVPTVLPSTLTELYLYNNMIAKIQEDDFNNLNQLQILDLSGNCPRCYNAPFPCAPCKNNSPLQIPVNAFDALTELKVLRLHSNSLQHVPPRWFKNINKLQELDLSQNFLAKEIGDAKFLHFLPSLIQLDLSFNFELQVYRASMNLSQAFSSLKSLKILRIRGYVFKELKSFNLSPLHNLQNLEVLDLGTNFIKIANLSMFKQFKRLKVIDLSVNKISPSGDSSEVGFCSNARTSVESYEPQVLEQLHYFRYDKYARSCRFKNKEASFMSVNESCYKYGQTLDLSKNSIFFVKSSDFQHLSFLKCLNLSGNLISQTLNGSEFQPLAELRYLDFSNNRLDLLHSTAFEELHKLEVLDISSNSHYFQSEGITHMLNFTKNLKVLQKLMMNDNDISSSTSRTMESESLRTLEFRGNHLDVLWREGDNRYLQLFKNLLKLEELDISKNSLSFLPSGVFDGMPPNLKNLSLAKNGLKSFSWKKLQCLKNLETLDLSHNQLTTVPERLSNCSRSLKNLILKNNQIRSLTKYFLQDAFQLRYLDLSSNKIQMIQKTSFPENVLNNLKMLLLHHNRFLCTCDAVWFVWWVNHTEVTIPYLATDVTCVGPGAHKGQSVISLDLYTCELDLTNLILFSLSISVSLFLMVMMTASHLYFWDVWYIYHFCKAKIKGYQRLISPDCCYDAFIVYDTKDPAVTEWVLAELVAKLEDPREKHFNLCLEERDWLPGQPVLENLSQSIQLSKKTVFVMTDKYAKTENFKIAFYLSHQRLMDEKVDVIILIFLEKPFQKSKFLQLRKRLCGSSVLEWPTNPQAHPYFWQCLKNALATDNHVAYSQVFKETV
How it was run: as §1

Q: For `COc1ccc(-c2[nH]c3ccc(N4CCC(N5CCN(CC(C)C)CC5)CC4)cc3c2C(C)C)cc1OC` [Example 91, 2-(3,4-dimethoxyphenyl)-5-(4-(4-isobutylpiperazin-1-yl)piperidin-1-yl)-3-isopropyl-1H-indole], which IC50 (human TLR8) is on record?
A: 92 nM

Q: What about the IC50 (human TLR9) of the same compound?
A: 1940 nM

Q: What about the IC50 (human TLR7) of the same compound?
A: 116 nM

Q: How did the IC50 (human TLR8) turn out when `CCc1c(-c2cc(OC)nc(OC)c2)[nH]c2ccc(N3CCNCC3)cc12` [Example 129, 2-(2,6-dimethoxypyridin-4-yl)-3-ethyl-5-(piperazin-1-yl)-1H-indole] was run?
A: 22 nM

Q: What about the IC50 (human TLR9) of the same compound?
A: 3320 nM

Q: And the IC50 (human TLR7)?
A: 75 nM

Q: How did the IC50 (human TLR8) turn out when `CCc1c(-c2ccnc(OC)c2)[nH]c2ccc(N3CCN(C4CCN(C)CC4)CC3)cc12` [Example 143, 3-ethyl-2-(2-methoxypyridin-4-yl)-5-(4-(1-methylpiperidin-4-yl)piperazin-1-yl)-1H-indole] was run?
A: 10 nM

Q: What about the IC50 (human TLR9) of the same compound?
A: 839 nM

Q: What about the IC50 (human TLR7) of the same compound?
A: 75 nM

Q: What does the source list for `CCc1c(-c2ccnc(OC)c2)[nH]c2ccc(N3CCN(C4CCN(CC(C)C)CC4)CC3)cc12` [Example 160, 3-ethyl-5-(4-(1-isobutylpiperidin-4-yl)piperazin-1-yl)-2-(2-methoxypyridin-4-yl)-1H-indole]?
A: IC50 (human TLR8): 14 nM; IC50 (human TLR9): 470 nM; IC50 (human TLR7): 106 nM

Q: For `COc1ccc(-c2[nH]c3ccc(N4CCC(OCCN(C)C)CC4)cc3c2C(C)C)cc1OC` [Example 114, 2-((1-(2-(3,4-dimethoxyphenyl)-3-isopropyl-H-indol-5-yl)piperidin-4-yl)oxy)-N,N-dimethylethan-1-amine], which IC50 (human TLR8) is on record?
A: 24 nM

Q: And the IC50 (human TLR9)?
A: 951 nM

Q: And the IC50 (human TLR7)?
A: 460 nM

Q: For `COc1ccc(-c2[nH]c3ccc(N4CCC(N5CCN(C(C)C)CC5)CC4)cc3c2C(C)C)cc1OC` [Example 85, 2-(3,4-dimethoxyphenyl)-3-isopropyl-5-(4-(4-isopropylpiperazin-1-yl)piperidin-1-yl)-1H-indole], which IC50 (human TLR8) is on record?
A: 16 nM

Q: And the IC50 (human TLR9)?
A: 637 nM

Q: What about the IC50 (human TLR7) of the same compound?
A: 23 nM

Q: Which IC50 (human TLR8) does the source give for `CCc1c(-c2ccc(OC)c(OC)c2)[nH]c2ccc(N3CCN(C4CCN(C(C)C)CC4)CC3)cc12` [Example 169, 2-(3,4-dimethoxyphenyl)-3-ethyl-5-(4-(1-isopropylpiperidin-4-yl)piperazin-1-yl)-1H-indole] here?
A: 10 nM

Q: What about the IC50 (human TLR9) of the same compound?
A: 442 nM

Q: And the IC50 (human TLR7)?
A: 61 nM

Q: `CCc1c(-c2ccnc(C)c2)[nH]c2ccc(N3CCN(C4CCN(CC)CC4)CC3)cc12` [Example 142, 3-ethyl-5-(4-(1-ethylpiperidin-4-yl)piperazin-1-yl)-2-(2-methylpyridin-4-yl)-1H-indole] was tested. Which IC50 (human TLR8) did it give?
A: 7880 nM

Q: What about the IC50 (human TLR9) of the same compound?
A: 225 nM

Q: And the IC50 (human TLR7)?
A: 3670 nM

Q: How did the IC50 (human TLR8) turn out when `CNCCN1CCN(c2ccc3[nH]c(-c4ccnc5[nH]ccc45)c(C(C)C)c3c2)CC1` [Example 138, 2-(4-(3-isopropyl-2-(1H-pyrrolo[2,3-b]pyridin-4-yl)-1H-indol-5-yl)piperazin-1-yl)-N-methylethan-1-amine] was run?
A: 0.62 nM

Q: And the IC50 (human TLR9)?
A: 939 nM

Q: What about the IC50 (human TLR7) of the same compound?
A: 2 nM

Q: `COc1ccc(-c2[nH]c3ccc(NC(=O)[C@@H](N)CCCCN)cc3c2C(C)C)cc1OC` [Example 23, (S)-2,6-diamino-N-(2-(3,4-dimethoxyphenyl)-3-isopropyl-1H-indol-5-yl)hexanamide] was tested. Which IC50 (human TLR8) did it give?
A: 433 nM

Q: And the IC50 (human TLR9)?
A: > 50000 nM

Q: And the IC50 (human TLR7)?
A: 969 nM

Q: What does the source list for `Cc1cc(-c2[nH]c3ccc(N4CCC(OCCN(C)C)C4=O)cc3c2C(C)C)ccn1` (stereo not drawn) [Example 7, 3-(2-(dimethylamino)ethoxy)-1-(3-isopropyl-2-(2-methylpyridin-4-yl)-1H-indol-5-yl)pyrrolidin-2-one]?
A: IC50 (human TLR8): 603 nM; IC50 (human TLR9): 17300 nM; IC50 (human TLR7): 1590 nM

Q: How did the IC50 (human TLR8) turn out when `COCCN1CCN(C2CCN(c3ccc4[nH]c(-c5ccc(OC)c(OC)c5)c(C(C)C)c4c3)CC2)CC1` [Example 92, 2-(3,4-dimethoxyphenyl)-3-isopropyl-5-(4-(4-(2-methoxyethyl)piperazin-1-yl)piperidin-1-yl)-1H-indole] was run?
A: 12 nM

Q: What about the IC50 (human TLR9) of the same compound?
A: 1750 nM

Q: And the IC50 (human TLR7)?
A: 19 nM

Q: Which IC50 (human TLR8) does the source give for `CCc1c(-c2ccc(OC)c(OC)c2)[nH]c2ccc(N3CCN(CCNC)CC3(C)C)cc12` [Example 150, 2-(4-(2-(3,4-dimethoxyphenyl)-3-ethyl-1H-indol-5-yl)-3,3-dimethylpiperazin-1-yl)-N-methylethan-1-amine] here?
A: 102 nM

Q: And the IC50 (human TLR9)?
A: 425 nM

Q: What about the IC50 (human TLR7) of the same compound?
A: 360 nM

Q: With `COc1ccc(-c2[nH]c3ccc(N4CCC(N(C)C)C4=O)cc3c2C(C)C)cc1OC` (stereo not drawn) [Example 3, 1-(2-(3,4-dimethoxyphenyl)-3-isopropyl-1H-indol-5-yl)-3-(dimethylamino)pyrrolidin-2-one] as the compound, how does the IC50 (human TLR8) read?
A: 31 nM

Q: What about the IC50 (human TLR9) of the same compound?
A: 10800 nM

Q: What about the IC50 (human TLR7) of the same compound?
A: 44 nM

Q: `COc1ccc(-c2[nH]c3ccc(N4CCC(N5CCNCC5)CC4)cc3c2C(C)C)cc1OC` [Example 73, 2-(3,4-dimethoxyphenyl)-3-isopropyl-5-(4-(piperazin-1-yl)piperidin-1-yl)-1H-indole] was tested. Which IC50 (human TLR8) did it give?
A: 65 nM

Q: What about the IC50 (human TLR9) of the same compound?
A: 2110 nM

Q: What about the IC50 (human TLR7) of the same compound?
A: 63 nM
